# Like-named read-outs stand apart in the source and are kept apart here.
# Experiments:
# [1] = tested on: p-ERK in AGS cells (KRAS G12D mutation); test: Cell p-ERK assay (HTRF, Advance ERK phospho-T202/Y204 kit); type: cell-based, human; conditions: AGS cells, 3 hours incubation with compound, HTRF, read-out: AGS p-ERK IC50
# Protocol: AGS was purchased from ATCC; catalog No: CRL-1739; F12K was purchased from Gibco; catalog No: 21127-022; FBS was purchased from Gibco; catalog No: 10099-141C; trypsin (containing EDTA) was purchased from Gibco, catalog No: 25200-072; DMSO was purchased from VWRAMRESCO; catalog No: 0231-500 ML; 96-well cell culture plates were purchased from Corning; catalog No: 3599; white opaque 96-well plates were purchased from Cisbio; catalog No: 66PL96025; Advance ERK phospho-T202/Y204 kit was purchased from Cisbio; catalog No: 64AERPEH; cell counters were purchased from CHEMOMETEC; model No: NC-200; microplate reader was purchased from PerkinElmer; model No: Envison.
# AGS is an endogenous human gastric adenocarcinoma cell line containing the KRAS^G12D mutation, cultured in F12K+10% FBS medium. On the first day of the experiment, cells in the logarithmic growth phase were taken, digested with trypsin (containing EDTA), collected, and counted. Approximately 20000 cells/well were seeded in a 96-well cell culture plate and cultured overnight in an incubator with 5% CO2. 1000X stock solutions of compounds at a 3.16-fold concentration gradient were prepared using DMSO, and diluted 200-fold into a 5X compound stock solution using the medium described above. The 5X compound stock solution was added to each cell culturing well the day after cell seeding at a final concentration of 1X and a DMSO content of 0.1%. DMSO was used as a control in the experiment. After the compound was added and the incubation was kept for 3 hours, the medium in the culture wells was removed. 50 μl of Cell lysis solution (from Advance ERK phospho-T202/Y204 kit, the same below) was added to each well, mixed well, and incubated for 30 minutes and then 16 μl of the mixed solution was transferred to a white opaque 96-well plate, another 16 μl of cell lysis solution was added to a well as a blank well. After transferring, 4 μl of p-ERK HTRF antibody mixture (from Advance ERK phospho-T202/Y204 kit) was added to each well. After incubation for 4 hours, HTRF fluorescence value (RLU) was read by a microplate reader, and p-ERK level inhibition rate (IR (%)=(RLU control-RLU compound)/(RLU control-RLU blank)×100%) of the compounds was calculated. The concentration of the compounds and corresponding cell p-ERK level inhibition rate were fitted using Prism 8 four-parameters method, and the IC50 value was calculated.
# AGS cells (KRAS G12D) = test: Cell proliferation inhibition assay, 3D, CellTiter-Glo 3D, AGS; type: cell-based, human; conditions: Homo sapiens, 120 h, AGS 3D sphere model, 5 days incubation
# Text: AsPC-1 was purchased from ATCC; catalog No: CRL-1682; AGS was purchased from ATCC; catalog No: CRL-1739; RPMI1640 was purchased from Gibco; catalog No: 11875-093 2235123; F12K was purchased from Gibco; catalog No: 21127-022; FBS was purchased from Gibco; catalog No: 10099-141C; trypsin (containing EDTA) was purchased from Gibco; catalog No: 25200-072; CellTiter Glo-3D was purchased from Progema; catalog No: G9683; 384-well sphere plates were purchased from Corning; catalog No: 3830; white opaque 384-well plates were purchased from Corning; catalog No: 3570; cell counters were purchased from CHEMOMETEC; model: NC-200; microplate reader was purchased from PerkinElmer; model: Envison;
# AsPC-1 is an endogenous human pancreatic cancer cell containing KRAS^G12D mutation, cultured in RPMI-1640 medium containing 10% FBS; AGS is a human gastric cancer cell line containing KRAS^G12D, cultured in F-12K medium containing 10% FBS. Cells in the logarithmic growth phase were taken, digested with trypsin (containing EDTA), collected, and counted. 800 AsPC-1 cells/well or 400 AGS cells/well, respectively, were seeded in a 384-well sphere plate and cultured overnight at 5% CO2 to establish a 3D cell model. 1000X stock solutions of compounds at a 3.16-fold concentration gradient of were prepared using DMSO, diluted 100-fold into a 10X compound stock solution using the medium described above. The 10X compound stock solution was added to each cell on 2nd day after cell seeding at a final concentration of 1X and a DMSO content of 0.1%. DMSO was used as a control in the experiment, and the medium was used as blank. After the addition of the compounds, the cells were incubated for 5 days. 30 μl of CellTiter-Glo work solution was added to each well, mixed well, and incubated for 30 minutes. After standing at room temperature for 30 minutes, 40 μl of the mixed solution was transferred to an opaque 384-well plate with a white clear bottom. Luminescence chemiluminescence value was read by a microplate reader, and the cell proliferation inhibition rate (IR (%)=(RLU control-RLU compound)/(RLU control-RLU blank)×100%) was calculated. The gradiently diluted concentration of the compounds and corresponding cell proliferation inhibition rate were fitted using XLFit four-parameters method, and the IC50 value was calculated. […] The results of some exemplary compounds are shown in Table 2 (“−” represents untested).
SMILES,IC50 [1],IC50 (AGS cells (KRAS G12D)),IC50 ([1]; Homo sapiens)
"CCc1cccc2cc(O)cc(-c3cc4nc(OC[C@@]56CCCN5C[C@H](F)C6)nc5c4c(c3Cl)OC[C@@H]3[C@@H]4CC[C@H](CN53)N4)c12 [Example Z381, 4-((5aS,6S,9R)-3-Chloro-13-(((2R,7aS)-2-Fluorotetrahydro-1H-Pyrrolizin-7a (5H)-Yl)Methoxy)-5a,6,7,8,9,10-Hexahydro-5H-6,9-Epiminoazepino[2′,1′: 3,4][1,4]Oxazepino[5,6,7-De]Quinazolin-2-Yl)-5-Ethylnaphthalen-2-Ol]",0.436 µM,–,–
"CCc1cccc2cccc(-c3nc4c5c(nc(OC[C@@]67CCCN6C[C@H](F)C7)nc5c3F)N3C[C@H]5CC[C@H](N5)[C@H]3[C@H](CC)O4)c12 [Example Z592, (5S,5aS,6S,9R)-5-ethyl-2-(8-ethylnaphthalen-1-yl)-1-fluoro-12-(((2R,7aS)-2-fluorotetrahydro-1H-pyrrolizin-7a (5H)-yl)methoxy)-5a,6,7,8,9,10-hexahydro-5H-4-oxa-3,10a,11,13,14-pentaaza-6,9-methanonaphtho[1,8-ab]heptalene]",–,0.354 µM,–
"C#Cc1c(F)ccc2cccc(-c3nc4c5c(nc(OCC67CC(=C)CN6C[C@@H]6C[C@@H]67)nc5c3F)N3C[C@H]5CC[C@H](N5)[C@H]3[C@H](C)O4)c12 (stereo partly drawn) [Example Z605, (5S,5aS,6S,9R)-2-(8-ethynyl-7-fluoronaphthalen-1-yl)-1-fluoro-5-methyl-12-(((1aR,6bS)-5-methylenehexahydrocyclopropa[a]pyrrolizin-6a (4H)-yl)methoxy)-5a,6,7,8,9,10-hexahydro-5H-4-oxa-3,10a,11,13,14-pentaaza-6,9-methanonaphtho[1,8-ab]heptalene]",–,–,0.554 µM
"C#Cc1c(F)ccc2cccc(-c3nc4c5c(nc(OCC67CC(F)CN6CCC7=C)nc5c3F)N3C[C@H]5CC[C@H](N5)[C@H]3[C@H](C)O4)c12 (stereo partly drawn) [Example Z609, (5S,5aS,6S,9R)-2-(8-ethynyl-7-fluoronaphthalen-1-yl)-1-fluoro-12-((6-fluoro-1-methylenetetrahydro-1H-pyrrolizin-7a (5H)-yl)methoxy)-5-methyl-5a,6,7,8,9,10-hexahydro-5H-4-oxa-3,10a,11,13,14-pentaaza-6,9-methanonaphtho[1,8-ab]heptalene]",–,–,0.0492 µM
"C#Cc1c(F)ccc2cccc(-c3nc4c5c(nc(OC[C@]67CCCN6C[C@@H]6C[C@@H]67)nc5c3F)N3C[C@H]5CC[C@H](N5)[C@H]3[C@H](C)O4)c12 [Example Z626-1, (5S,5aS,6S,9R)-2-(8-ethynyl-7-fluoronaphthalen-1-yl)-1-fluoro-12-(((1aR,6aR,6bS)-hexahydrocyclopropa[a]pyrrolizin-6a (4H)-yl)methoxy)-5-methyl-5a,6,7,8,9,10-hexahydro-5H-4-oxa-3,10a, 11,13, 14-pentaaza-6,9-methanonaphtho[1,8-ab]heptalene]",–,0.502 µM,0.411 µM
"C#Cc1c(F)ccc2cccc(-c3nc4c5c(nc(OCC67CCCN6CC(=CF)C7)nc5c3F)N3C[C@H]5CC[C@H](N5)[C@H]3[C@@H](C)O4)c12 (stereo partly drawn) [Example Z630, (5R,5aS,6S,9R)-2-(8-ethynyl-7-fluoronaphthalen-1-yl)-1-fluoro-12-((2-(fluoromethylene)tetrahydro-1H-pyrrolizin-7a (5H)-yl)methoxy)-5-methyl-5a,6,7,8,9,10-hexahydro-5H-4-oxa-3,10a, 11, 13,14-pentaaza-6,9-methanonaphtho[1,8-ab]heptalene]",–,–,0.729 µM
"C#Cc1c(F)ccc2cccc(-c3nc4c5c(nc(OCC67CCCN6CC(=C)C7)nc5c3F)N3C[C@H]5CC[C@H](N5)[C@H]3CCO4)c12 (stereo partly drawn) [Example Z640, (6aR,7S, 10R)-2-(8-ethynyl-7-fluoronaphthalen-1-yl)-1-fluoro-13-((2-methylenetetrahydro-1H-pyrrolizin-7a (5H)-yl)methoxy)-5,6,6a,7,8,9,10,11-octahydro-4-oxa-3,11a, 12, 14, 15-pentaaza-7,10-methanocyclohepta[4,5]cycloocta[1,2,3-de]naphthalene]",–,–,0.0655 µM
"C=C1CN2C[C@H](F)CC2(COc2nc3c4c(nc(-c5cccc6cccc(C#N)c56)c(F)c4n2)O[C@@H](C)[C@@H]2[C@@H]4CC[C@H](CN32)N4)C1 (stereo partly drawn) [Example Z673, 8-((5S,5aS,6S,9R)-1-fluoro-12-(((2R)-2-fluoro-6-methylenetetrahydro-1H-pyrrolizin-7a (5H)-yl)methoxy)-5-methyl-5a,6,7,8,9,10-hexahydro-5H-4-oxa-3,10a,11,13,14-pentaaza-6,9-methanonaphtho[1,8-ab]heptalen-2-yl)-1-naphthonitrile]",–,–,0.147 µM
"C=C1CN2C[C@H](F)CC2(COc2nc3c4c(nc(-c5nc(N)cc(C)c5C5CC5)c(F)c4n2)O[C@@H](C)[C@@H]2[C@@H]4CC[C@H](CN32)N4)C1 (stereo partly drawn) [Example Z676, 5-cyclopropyl-6-((5S,5aS,6S,9R)-1-fluoro-12-(((2R)-2-fluoro-6-methylenetetrahydro-1H-pyrrolizin-7a (5H)-yl)methoxy)-5-methyl-5a,6,7,8,9,10-hexahydro-5H-4-oxa-3,10a, 11, 13, 14-pentaaza-6,9-methanonaphtho[1,8-ab]heptalen-2-yl)-4-methylpyridin-2-amine]",–,0.267 µM,0.07 µM
"C=C1CN2C[C@H](F)CC2(COc2nc3c4c(nc(-c5cc(N)nc(C)c5C5CC5)c(F)c4n2)O[C@@H](C)[C@@H]2[C@@H]4CC[C@H](CN32)N4)C1 (stereo partly drawn) [Example Z680, 5-Cyclopropyl-4-((58,5aS,6S,9R)-1-Fluoro-12-(((2R)-2-Fluoro-6-Methylenetetrahydro-1H-Pyrrolizin-7a (5H)-Yl)Methoxy)-5-Methyl-5a,6,7,8,9,10-Hexahydro-5H-4-Oxa-3,10a,11,13,14-Pentaaza-6,9-Methanonaphtho[1,8-Ab]Heptalen-2-Yl)-6-Methylpyridin-2-Amine]",–,0.386 µM,0.143 µM
"C#Cc1cccc2c(N)ccc(-c3nc4c5c(nc(OCC67CC(=C)CN6C[C@H](F)C7)nc5c3F)N3C[C@H]5CC[C@H](N5)[C@H]3[C@H](C)O4)c12 (stereo partly drawn) [Example Z686, 5-ethynyl-4-((5S,5aS,6S,9R)-1-fluoro-12-(((2R)-2-fluoro-6-methylenetetrahydro-1H-pyrrolizin-7a (5H)-yl)methoxy)-5-methyl-5a,6,7,8,9,10-hexahydro-5H-4-oxa-3,10a,11,13,14-pentaaza-6,9-methanonaphtho[1,8-ab]heptalen-2-yl) naphthalen-1-amine]",–,–,0.447 µM
"C#Cc1cccc2cc(N)cc(-c3nc4c5c(nc(OC)nc5c3F)N3C[C@H]5CC[C@H](N5)[C@H]3[C@H](C)O4)c12 [Example Z705, 5-ethynyl-4-((5S,5aS,6S,9R)-1-fluoro-12-methoxy-5-methyl-5a,6,7,8,9,10-hexahydro-5H-4-oxa-3,10a, 11,13,14-pentaaza-6,9-methanonaphtho[1,8-ab]heptalen-2-yl) naphthalen-2-amine]",–,–,0.195 µM

# — patent US20250186456A1, “PYRIMIDINE-FUSED CYCLIC COMPOUND AND PREPARATION METHOD AND USE THEREOF” (Genfleet Therapeutics (Shanghai) Inc., priority 2021, published 2025)
